Data from patent publication US6281214A, “Biphenyl derivatives” (Eisai Co., Ltd, priority 1994, dated 2001).
Structures can show the parent of a compound that is named as a salt. Where two headings read alike, the source gives them in different places.

Assays:
Set-up in all cases: species or system SD rats
serotonin S2 receptor = target: T1, serotonin S2 receptor (Rattus norvegicus, UniProt P14842); assay: serotonin S2 receptor binding test ([3H] Ketanserin Binding Test); conditions: 1 nM [3H] Ketanserin, rat cortex, 37° C., 15 minutes
T1 construct: The receptor fraction prepared from the cortex was molten and suspended; from tissue; host or cells: cerebral cortex of SD rats (membrane fraction)
T1 sequence (P14842 whole entry): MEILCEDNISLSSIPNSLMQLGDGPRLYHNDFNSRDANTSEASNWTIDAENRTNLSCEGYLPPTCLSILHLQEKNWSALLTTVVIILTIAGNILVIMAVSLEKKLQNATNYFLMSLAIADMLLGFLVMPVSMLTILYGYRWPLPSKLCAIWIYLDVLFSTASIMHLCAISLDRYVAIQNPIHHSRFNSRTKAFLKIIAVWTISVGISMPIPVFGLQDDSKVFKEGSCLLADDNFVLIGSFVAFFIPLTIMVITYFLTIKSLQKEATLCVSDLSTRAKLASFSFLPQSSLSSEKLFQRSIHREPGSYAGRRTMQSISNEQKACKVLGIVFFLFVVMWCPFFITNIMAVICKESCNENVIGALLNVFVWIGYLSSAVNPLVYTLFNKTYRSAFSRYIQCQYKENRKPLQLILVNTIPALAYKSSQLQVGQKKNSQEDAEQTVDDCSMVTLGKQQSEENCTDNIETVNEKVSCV
How it was run: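 Rat (SD, 6–8 weeks) cortical membranes in 50 mM Tris-HCl pH 7.4 were incubated with 1 nM [3H]ketanserin for 15 min at 37 °C, then filtered and counted. Nonspecific binding was defined with methysergide. IC50 was obtained by probit analysis and converted to Ki using the Scatchard-derived Kd.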

dopamine D2 receptor = target: T2, dopamine D2 receptor (Rattus norvegicus, UniProt P61169); assay: dopamine D2 receptor binding test ([3H] Spiperone Binding Test); conditions: 1 nM [3H] Spiperone, rat corpus striatum, room temperature, 60 minutes
T2 construct: the receptor fraction prepared from the corpus striatum was molten and suspended; from tissue; host or cells: corpus striatum of SD rats (membrane fraction)
T2 sequence (P61169 whole entry): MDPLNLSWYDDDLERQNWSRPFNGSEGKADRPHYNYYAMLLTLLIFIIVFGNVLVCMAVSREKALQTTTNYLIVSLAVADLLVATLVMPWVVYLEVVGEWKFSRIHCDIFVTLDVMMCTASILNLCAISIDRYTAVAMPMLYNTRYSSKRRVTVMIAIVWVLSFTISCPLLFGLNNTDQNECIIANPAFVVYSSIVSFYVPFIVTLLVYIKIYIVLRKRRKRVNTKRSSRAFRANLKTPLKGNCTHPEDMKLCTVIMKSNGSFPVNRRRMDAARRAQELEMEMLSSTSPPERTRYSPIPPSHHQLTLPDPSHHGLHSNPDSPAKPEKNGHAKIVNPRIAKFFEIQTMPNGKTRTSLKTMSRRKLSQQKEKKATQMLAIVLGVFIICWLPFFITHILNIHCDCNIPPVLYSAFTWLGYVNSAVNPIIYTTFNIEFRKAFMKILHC
How it was run: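 Rat (SD, 6–8 weeks) corpus striatum membranes in 50 mM Krebs-Tris pH 7.4 were incubated with 1 nM [3H]spiperone at room temperature for 60 minutes, with nonspecific binding defined by excess spiperone. IC50 came from probit analysis; Ki was derived using radioligand concentration and Scatchard Kd.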

adrenergic α1 receptor = adrenergic α1 receptor binding test ([3H] Prazosin Binding Test); conditions: 1 nM [3H] Prazosin, rat cortex, room temperature, 60 minutes
How it was run: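 Rat (SD, 6-8 weeks) cerebral cortex membranes in 50 mM Tris-HCl pH 7.4 incubated with 1 nM [3H]prazosin for 60 min at room temperature; nonspecific binding defined with phentolamine. IC50 by probit method, converted to Ki using radioligand concentration and Scatchard-derived Kd.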

[1] = read-out: Ki value, dopamine D2 receptor

Compound	Ki (serotonin S2 receptor) [nM]	Ki (dopamine D2 receptor; [1]) [nM]	Ki (adrenergic α1 receptor) [nM]	Ki (adrenergic α1 receptor; hydrochloride) [nM]	Ki (dopamine D2 receptor; Ki value, dopamine D2 receptor) [nM]
CCCCS(=O)(=O)Nc1cc(N2CCN(CC)CC2)cc(-c2ccccc2C)c1Cl [Example 19, 1-Ethyl-4-[3-(2-tolyl)-4-chloro-5-butanesulfonylamino]phenylpiperazine]	1.95	0.64	81.6	–	–
CCN1CCN(c2cc(-c3ccccc3)c(OC)c(C(C)CO)c2)CC1 (stereo not drawn) [Example 87]	283	135	> 1000	–	–
CCN1CCN(c2cc(C(=O)OC)c(OC)c(-c3ccccc3)c2)CC1 [Example 74, 1-Ethyl-4-(3-phenyl-4-methoxy-5-methoxycarbonyl)phenylpiperazine]	374	> 1000	> 1000	–	–
CCN1CCN(c2cc(-c3ccccc3)c(OC)c(S(=O)(=O)N3CCCC3)c2)CC1 [Example 135, 1-Ethyl-4-[3-phenyl-4-methoxy-5-(1-pyrrolidinylsulfonyl)]phenylpiperazine]	16	42.1	> 1000	–	–
CCN1CCN(c2cc(-c3ccccc3)c(OC)c(-c3ccco3)c2)CC1 [Example 90]	685	263	> 1000	–	–
CCN1CCN(c2cc(NS(=O)(=O)CC)c(Cl)c(-c3ccccc3Cl)c2)CC1 [Example 31, 1-Ethyl-4-[3-(2-chlorophenyl)-4-chloro-5-ethanesulfonylamino]phenylpiperazine]	12.4	0.69	36.1	–	–
CCN1CCN(c2cc(-c3ccc(F)cc3)c(OC)c(S(=O)(=O)CC)c2)CC1 [Example 40]	3.64	9.25	> 1000	–	–
CCCCS(=O)(=O)Nc1cc(N2CCN(CC)CC2)cc(-c2ccccc2Cl)c1Cl [Example 33, 1-Ethyl-4-[3-(2-chlorophenyl)-4-chloro-5-butanesulfonylamino]phenylpiperazine]	6.46	2.02	86.9	–	–
CCC(F)c1cc(N2CCN(CCO)CC2)cc(-c2ccccc2C#N)c1Cl (single isomer, unassigned) [Example 13, 1-(2-hydroxyethyl)-4-[3-(2-cyanophenyl)-4-chloro-5-(fluoropropyl)]phenylpiperazine]	24.9	4.05	404	–	–
CCCc1cc(N2CCN(CC)CC2)cc(-c2ccccc2)c1OC [Example 59, 1-Ethyl-4-(3-phenyl-4-methoxy-5-propyl)phenylpiperazine]	36.7	47	301	–	–
CCCS(=O)(=O)Nc1cc(N2CCN(C)CC2)cc(-c2ccccc2C)c1Cl [Example 29, 1-Methyl-4-[3-(2-tolyl)-4-chloro-5-propanesulfonylamino]phenylpiperazine]	4.86	1.19	50.1	–	–
CCN1CCN(c2cc(C(Cc3ccc(F)cc3)=NO)c(OC)c(-c3ccccc3)c2)CC1 [Example 98, 1-Ethyl-4-{3-phenyl-4-methoxy-5-[4-fluoro-(1-hydroxyimino)phentheyl]}phenylpiperazine]	19.3	64.5	> 1000	–	–
CCN1CCN(c2cc(-c3ccccc3)c(OC)c(S(=O)(=O)N(C)C)c2)CC1 [Example 134, 1-Ethyl-4-(3-phenyl-4-methoxy-5-dimemthylaminosulfonyl)phenylpiperazine]	30.3	59.7	> 1000	–	–
COc1c(-c2ccccc2)cc(N2CCN(CCO)CC2)cc1-c1ccccc1 [Example 64]	284	384	459	–	–
CCCS(=O)(=O)Nc1cc(N2CCN(CC)CC2)cc(-c2ccccc2C)c1Cl [Example 17, 1-ethyl-4-[3-(2-tolyl)-4-chloro-5-propanesulfonylamino]phenylpiperazine hydrochloride]	374	> 100	–	550	–
CCC(F)c1cc(N2CCN(CC)CC2)cc(-c2ccccc2C#N)c1Cl (stereo not drawn) [Example 21]	14.4	1.85	418	–	–
CCN1CCN(c2cc(-c3ccccc3)c(OC)c(C(C)(C)F)c2)CC1 [Example 86, 1-Ethyl-4-[3-phenyl-4-methoxy-5-(1-fluoroisopropyl)]phenylpiperazine]	29.4	10.5	> 1000	–	–
CCN1CCN(c2cc(CCl)c(OC)c(-c3ccccc3)c2)CC1 [Example 45, 1-Ethyl-4-(3-phenyl-4-methoxy-5-chloromelthy)phenylpiperazine]	192	–	183	–	26.9
